Reference: patent publication US10597388B2, “Pyridazinone herbicides” (FMC CORPORATION, priority 2014, dated 2020)

What was measured:
Assay in all cases: Test D controlled growth environment herbicide test, pre- and postemergence
Format in all cases: in vivo
[1] = test system: chamomile (scentless chamomile, Matricaria inodora)
Outline: (§1)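 Rating is visual, 0–100 scale (100 = complete control), made against untreated plants 14–21 d after treatment in controlled growth conditions. Postemergence sprays went onto 1- to 4-leaf plants in peat medium; preemergence sprays onto silt loam after sowing; formulation included a surfactant.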

[2] = test system: buckwheat, wild (wild buckwheat, Polygonum convolvulus)
Outline: as §1

[3] = test system: blackgrass (Alopecurus myosuroides)
Outline: as §1

[4] = test system: foxtail, green (green foxtail, Setaria viridis)
Outline: as §1

[5] = test system: bluegrass (annual bluegrass, Poa annua)
Outline: as §1

[6] = test system: wheat, spring (spring wheat, Triticum aestivum)
Outline: as §1

[7] = test system: radish, wild (wild radish, Raphanus raphanistrum)
Outline: as §1

[8] = test system: ryegrass, Italian (Italian ryegrass, Lolium multiflorum)
Outline: as §1

[9] = test system: canarygrass (Phalaris minor)
Outline: as §1

[10] = test system: oat, wild (wild oat, Avena fatua)
Outline: as §1

[11] = test system: field violet (Viola arvensis)
Outline: as §1

[12] = test system: pigweed (Amaranthus retroflexus)
Outline: as §1

[13] = test system: barley, spring (spring barley, Hordeum vulgare)
Outline: as §1

[14] = Postemergence, 31 g ai/ha, scale 0 to 100 (0 no effect, 100 complete control)
[15] = Postemergence, 125 g ai/ha, visual rating on scale 0 (no effect) to 100 (complete control), 14 to 21 d
[16] = Postemergence, 250 g ai/ha, scale 0 to 100 (0 no effect, 100 complete control)
[17] = Preemergence, 125 g ai/ha, scale 0 to 100 (0 no effect, 100 complete control)
[18] = Preemergence, 250 g ai/ha, scale 0 to 100 (0 no effect, 100 complete control)
[19] = postemergence, 62 g ai/ha, scale 0 to 100, 0 no effect, 100 complete control
[20] = Preemergence, 62 g ai/ha, scale 0 to 100 (0 no effect, 100 complete control)

CC(=O)Oc1c(C)nn(C)c(=O)c1-c1ccc(F)c2ccccc12 [Compound 90]
Chamomile plant response rating [1, 14]: 70
Plant response rating, Chamomile [1, 15]: 98
Plant response rating, Chamomile [1, 16]: 100
Plant response rating (scale of 0 to 100), Chamomile ([1]; Preemergence, 31 g ai/ha): 100
Plant response rating (scale of 0 to 100), Chamomile ([1]; Preemergence, 62 g ai/ha): 100
Plant response rating, Chamomile [1, 17]: 100
Plant response rating, Chamomile [1, 18]: 100
Plant response rating, Chamomile [1, 19]: 75
Buckwheat, Wild plant response rating [2, 14]: 80
Plant response rating, Buckwheat, Wild [2, 15]: 100
Plant response rating, Buckwheat, Wild [2, 16]: 100
Plant response rating (scale of 0 to 100), Buckwheat, Wild ([2]; Preemergence, 31 g ai/ha): 15
Plant response rating, Buckwheat, Wild [2, 17]: 40
Plant response rating, Buckwheat, Wild [2, 18]: 80
Plant response rating, Buckwheat, Wild [2, 19]: 90
Blackgrass plant response rating [3, 14]: 15
Plant response rating, Blackgrass [3, 15]: 55
Plant response rating, Blackgrass [3, 16]: 65
Plant response rating (scale of 0 to 100), Blackgrass ([3]; Preemergence, 31 g ai/ha): 25
Plant response rating, Blackgrass [3, 20]: 35
Plant response rating, Blackgrass [3, 17]: 45
Plant response rating, Blackgrass [3, 18]: 60
Plant response rating, Blackgrass [3, 19]: 35
Foxtail, Green plant response rating [4, 14]: 25
Plant response rating, Foxtail, Green [4, 15]: 70
Plant response rating, Foxtail, Green [4, 16]: 75
Plant response rating (scale of 0 to 100), Foxtail, Green ([4]; Preemergence, 31 g ai/ha): 25
Plant response rating (scale of 0 to 100), Foxtail, Green ([4]; Preemergence, 62 g ai/ha): 45
Plant response rating, Foxtail, Green [4, 17]: 70
Plant response rating, Foxtail, Green [4, 18]: 95
Plant response rating, Foxtail, Green [4, 19]: 55
Bluegrass plant response rating [5, 14]: 5
Plant response rating, Bluegrass [5, 15]: 25
Plant response rating, Bluegrass [5, 16]: 30
Plant response rating (scale of 0 to 100), Bluegrass ([5]; Preemergence, 31 g ai/ha): 0
Plant response rating, Bluegrass [5, 20]: 40
Plant response rating, Bluegrass [5, 17]: 65
Plant response rating, Bluegrass [5, 18]: 65
Plant response rating, Bluegrass [5, 19]: 15
Wheat, Spring plant response rating [6, 14]: 25
Plant response rating, Wheat, Spring [6, 15]: 40
Plant response rating, Wheat, Spring [6, 16]: 50
Plant response rating (scale of 0 to 100), Wheat, Spring ([6]; Preemergence, 31 g ai/ha): 20
Plant response rating (scale of 0 to 100), Wheat, Spring ([6]; Preemergence, 62 g ai/ha): 35
Plant response rating, Wheat, Spring [6, 17]: 60
Plant response rating, Wheat, Spring [6, 18]: 70
Plant response rating, Wheat, Spring [6, 19]: 35
Radish, Wild plant response rating [7, 14]: 65
Plant response rating, Radish, Wild [7, 15]: 75
Plant response rating, Radish, Wild [7, 16]: 95
Plant response rating (scale of 0 to 100), Radish, Wild ([7]; Preemergence, 31 g ai/ha): 0
Plant response rating (scale of 0 to 100), Radish, Wild ([7]; Preemergence, 62 g ai/ha): 65
Plant response rating, Radish, Wild [7, 17]: 90
Plant response rating, Radish, Wild [7, 18]: 95
Plant response rating, Radish, Wild [7, 19]: 75
Ryegrass, Italian plant response rating [8, 14]: 75
Plant response rating, Ryegrass, Italian [8, 15]: 95
Plant response rating, Ryegrass, Italian [8, 16]: 100
Plant response rating (scale of 0 to 100), Ryegrass, Italian ([8]; Preemergence, 31 g ai/ha): 100
Plant response rating (scale of 0 to 100), Ryegrass, Italian ([8]; Preemergence, 62 g ai/ha): 100
Plant response rating, Ryegrass, Italian [8, 17]: 100
Plant response rating, Ryegrass, Italian [8, 18]: 100
Plant response rating, Ryegrass, Italian [8, 19]: 90
Canarygrass plant response rating [9, 14]: 25
Plant response rating, Canarygrass [9, 15]: 75
Plant response rating, Canarygrass [9, 16]: 75
Plant response rating (scale of 0 to 100), Canarygrass ([9]; Preemergence, 31 g ai/ha): 50
Plant response rating (scale of 0 to 100), Canarygrass ([9]; Preemergence, 62 g ai/ha): 75
Plant response rating, Canarygrass [9, 17]: 85
Plant response rating, Canarygrass [9, 18]: 95
Plant response rating, Canarygrass [9, 19]: 45
Oat, Wild plant response rating [10, 14]: 75
Plant response rating, Oat, Wild [10, 15]: 98
Plant response rating, Oat, Wild [10, 16]: 100
Plant response rating (scale of 0 to 100), Oat, Wild ([10]; Preemergence, 31 g ai/ha): 75
Plant response rating (scale of 0 to 100), Oat, Wild ([10]; Preemergence, 62 g ai/ha): 80
Plant response rating, Oat, Wild [10, 17]: 85
Plant response rating, Oat, Wild [10, 18]: 98
Plant response rating, Oat, Wild [10, 19]: 90
Field Violet plant response rating [11, 14]: 90
Plant response rating, Field Violet [11, 15]: 100
Plant response rating, Field Violet [11, 16]: 100
Plant response rating (scale of 0 to 100), Field Violet ([11]; Preemergence, 31 g ai/ha): 95
Plant response rating (scale of 0 to 100), Field Violet ([11]; Preemergence, 62 g ai/ha): 95
Plant response rating, Field Violet [11, 17]: 100
Plant response rating, Field Violet [11, 18]: 100
Plant response rating, Field Violet [11, 19]: 98
Pigweed plant response rating [12, 14]: 80
Plant response rating, Pigweed [12, 15]: 95
Plant response rating, Pigweed [12, 16]: 100
Plant response rating (scale of 0 to 100), Pigweed ([12]; Preemergence, 31 g ai/ha): 25
Plant response rating (scale of 0 to 100), Pigweed ([12]; Preemergence, 62 g ai/ha): 35
Plant response rating, Pigweed [12, 17]: 100
Plant response rating, Pigweed [12, 18]: 100
Plant response rating, Pigweed [12, 19]: 90
Barley, Spring plant response rating [13, 14]: 10
Plant response rating, Barley, Spring [13, 15]: 35
Plant response rating, Barley, Spring [13, 16]: 40
Plant response rating (scale of 0 to 100), Barley, Spring ([13]; Preemergence, 31 g ai/ha): 0
Plant response rating, Barley, Spring [13, 20]: 0
Plant response rating, Barley, Spring [13, 17]: 20
Plant response rating, Barley, Spring [13, 18]: 35
Plant response rating, Barley, Spring [13, 19]: 25
